Reference: patent publication US20220177533A1, “Recombinant TGF a for wound healing purposes, and the process thereof” (SREE CHITRA TIRUNAL INSTITUTE FOR MEDICAL SCIENCES AND …, priority 2018, published 2022)

What was measured:
[1] = system: rabbit wounds; experiment: Wound healing study in rabbits, 4×4 cm incision on the back; assay type: in vivo, rabbits (New Zealand White)
Source text: (§1) For this study, 23 rabbits (New Zealand White) are taken and kept in a well-fed, healthy and aseptic condition to ensure the perfect outcome of the experimentation.
Nine randomly selected rabbits (New Zealand White) are taken and a 4×4 cm incision was made right on the back of the animals. Following the application of Anesthetic Ketamine (Aneket, Neon Laboratories, India). This has been followed by application of recombinant TGFα to the “treated” group, and application of placebo, wherein except the growth factor, all the other conditions of “treated” group is followed.
It is found to initiate cell proliferation in rabbit wounds within 7 days. […] Thus, the recombinant growth factor TGF α found to be suitable for enhancing the healing of chronic wounds.

[2] = system: skin (intra-cutaneous reactions); parameters: species or system rabbits (New Zealand White); conditions: rabbit, in vivo
Source text: (§2) The declaration for skin irritation test is hereby made as the recombinant TGFα induced a total mean score of ‘0.55’ in test material and ‘◯’ in solvent following intra-dermal injection.
as §1

[3] = Antimicrobial / sterility test on test material
Source text: On the safety side, recombinant TGF α passed the skin irritation test, sterility test and cytotoxicity tests, and found to be suitable for enhancing the healing of chronic wounds.
as §2

[4] = system: L929 cells; experiment: MTT assay in L929 cells; assay type: cell-based; conditions: for cell viability: MTT, L929 cells
Procedure: Prior testing in said in vivo model, an in vitro testing for the metabolic activity has been performed through executing MTT assay in a specific cell line.
The MTT assay is carried out in L929 cells (ATCC, USA). […] 92.26%, 90.30% and 88.87% under these concentrations respectively. […] The results obtained are depicted in FIG. 3.

## recombinant TGF α: recombinant TGF α of 51 amino acids (Sequence ID No.: 1), carved out of 160 amino acid TGF α, expressed in a prokaryotic system
[1]; rabbit models
  healing of chronic wounds: enhance the healing of chronic wounds
[1]; rabbit models, day 14
  wound finding on 14th day: tissue regeneration and formation of epithelial layer
[1]; rabbit, 4×4 cm incision
  time to initiation of cell proliferation in rabbit wounds: ≤ 7 days
[1]; treated vs control, FIGS. 4C and 4T
  vasculature and inflammatory response of the healing wound: higher number of vasculature and almost no inflammatory response
[2]
  intra-cutaneous reactions (erythema and edema): No intra-cutaneous reactions such as erythema and edema
  skin irritation test outcome: passed
  total mean score, skin irritation test: 0.55
[3]
  antimicrobial test outcome: meeting the requirements for dermal applications
  sterility test outcome: passed
[4]
  cytotoxicity tests outcome: passed
[4]; 0.0025 μg/ml
  cell viability: 92.16%
[4]; 0.025 μg/ml
  cell viability: 92.26%
[4]; 0.25 μg/ml
  cell viability: 90.30%
[4]; 2.5 μg/ml
  cell viability: 88.87%
